# Results: publication PMC12459314, “Subcutaneous administration of a novel TRPM8 antagonist reverses cold hypersensitivity while attenuating the drop in core body temperature” (British journal of pharmacology, 2024)
# Key:
# [1] = Core body temperature and home cage activity by radiotelemetry (s.c., i.p.); format: in vivo, mouse; conditions: capsaicin 1 mg·kg−1 s.c.
# Description: Male and female C57Bl6J (Jackson Laboratories, Bar Harbor, USA, 8–12 weeks of age, 4 M:3F) were anaesthetised with isoflurane (2%–3% in 100% oxygen), and an HDX11 telemetry unit (Data Sciences) was inserted into the peritoneal cavity through a ventral midline incision. Animals were treated with buprenex (0.05 mg·kg^−1, s.c.every 8 h for 72 h) and enrofloxacin (2 mg·kg^−1, s.c.) and single-housed in a reverse light–dark cycle room (lights off 10 AM–10 PM). Mice were handled every day to acclimatise to injections, and experiments began 1 week later. All injections were performed between 1 and 2 PM. […] Body temperature was averaged into 5-min bins, whereas activity data were summed for the 5-min bin.
# human TRPA1 = molecular target: T1, human TRPA1 (Homo sapiens, UniProt O75762); test: FlexStation Ca2+ flux assay in HEK293T cells transfected with human TRPA1; format: cell-based; conditions: against an EC80 concentration (10 μM) of AITC
# T1 construct: expressed in transfected cells; host or cells: HEK293T
# T1 sequence (O75762 whole entry): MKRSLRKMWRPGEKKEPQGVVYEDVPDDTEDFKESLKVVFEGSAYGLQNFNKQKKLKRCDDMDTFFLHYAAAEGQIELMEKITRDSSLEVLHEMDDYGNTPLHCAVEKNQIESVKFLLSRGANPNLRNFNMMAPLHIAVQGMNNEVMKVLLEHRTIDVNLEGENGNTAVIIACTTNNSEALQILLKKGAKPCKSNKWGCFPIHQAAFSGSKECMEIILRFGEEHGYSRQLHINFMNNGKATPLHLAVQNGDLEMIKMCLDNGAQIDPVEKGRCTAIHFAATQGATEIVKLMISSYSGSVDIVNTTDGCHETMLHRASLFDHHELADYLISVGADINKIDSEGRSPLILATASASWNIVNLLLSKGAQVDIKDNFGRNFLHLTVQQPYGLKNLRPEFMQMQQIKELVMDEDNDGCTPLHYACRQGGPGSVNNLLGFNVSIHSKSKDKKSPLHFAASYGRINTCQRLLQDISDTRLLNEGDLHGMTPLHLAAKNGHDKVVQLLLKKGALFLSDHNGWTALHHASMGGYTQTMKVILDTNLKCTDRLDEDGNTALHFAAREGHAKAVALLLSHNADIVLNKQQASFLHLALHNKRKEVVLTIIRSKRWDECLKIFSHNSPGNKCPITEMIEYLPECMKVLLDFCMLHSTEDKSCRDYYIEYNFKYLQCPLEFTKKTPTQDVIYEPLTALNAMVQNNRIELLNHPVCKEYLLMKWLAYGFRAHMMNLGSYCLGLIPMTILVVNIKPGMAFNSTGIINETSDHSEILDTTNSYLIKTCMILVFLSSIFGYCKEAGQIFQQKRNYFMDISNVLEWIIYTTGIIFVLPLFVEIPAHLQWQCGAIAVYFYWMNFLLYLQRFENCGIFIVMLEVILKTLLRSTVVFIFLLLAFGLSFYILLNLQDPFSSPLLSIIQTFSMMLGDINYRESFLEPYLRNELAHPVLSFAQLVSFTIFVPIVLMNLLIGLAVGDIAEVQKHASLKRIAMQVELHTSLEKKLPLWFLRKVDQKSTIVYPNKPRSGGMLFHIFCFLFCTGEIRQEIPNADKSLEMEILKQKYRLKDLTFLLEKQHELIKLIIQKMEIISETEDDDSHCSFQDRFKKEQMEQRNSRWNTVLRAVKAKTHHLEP
# Description: (§1) The human embryonic kidney cell line (HEK293T, CRL-1573, RRID: CVCL_0045) was purchased from the American Type Culture Collection (Manassas, USA) and was maintained in Dulbecco’s Minimal Essential Medium (DMEM, Cellgro10013CV, Corning, Tewksbury, USA) that was supplemented with 10% fetal bovine serum (Gemini Bio-products), 2-mM L-glutamine (Invitrogen) and 100 U/mL penicillin and streptomycin (Invitrogen) and cultured in an incubator at 37°C, 5% CO2 and 95% humidity. Human TRPV1 and TRPA1 plasmid DNA (gift from D. Julius) were transiently bulk transfected individually into HEK293T cells using the FuGene HD transfection reagent (TFR, Promega, Madison, WI, USA) at a 3:1 ratio (TFR:DNA). Transfected cells were seeded at 10,000 cells per well in a volume of 25 μl into black walled collagen coated 384-well microtiter plates and cultured in an incubator at 37°C, 5% CO2 and 95% humidity for 48 h prior to the initiation of calcium mobilization experiments performed on a FlexStation 3 (Molecular Devices, Sunnyvale, CA, USA) platform equipped with a 16-channel robotic pipettor head and FLIPR tetra pipette tips. At 46 h post transfection, cell monolayers were preloaded with 25 μl of the FLIPR Calcium 6 dye (Molecular Devices) for 2 h in an incubator at 37°C, 5% CO2 and 95% humidity according to the manufacturer’s instructions. The plate was transferred to a FlexStation 3 microplate reader. Relative fluorescence units (RFUs) (Ex. 485 nm, Em 525 nm) were then acquired at 37°C in the kinetic mode. The run time for the agonist (1st) and antagonist (2nd) reads were 60 s each, for a total run time of 120 s, with an interval of 3.1 s between reads in the same well to allow all 16 wells in a column to be read sequentially, and the photomultiplier tube (PMT) level was set at medium, with 6 flashes per read. Baseline Fluo-6 RFUs were acquired for 18 s prior to the addition of compound in both the agonist and antagonist reads. For the first addition agonist read, the volume in the well was 50 μl, the pipette height was set at 40 μl, and 12.5 μl of the test compound was delivered at a speed of 2 μl·s^−1 after the baseline RFU’s acquisition period at 19 s, and the RFUs were acquired for an additional 41 s. For the second addition antagonist read, the volume in the well was 62.5 μl, the pipette height was set at 40 μl, and 12.5 μl of an EC80 agonist concentration was delivered at a speed of 2 μl/s after the baseline RFU’s acquisition period at 19 s, and the RFUs were acquired for an additional 41 s. The FlexStation 3 instrument settings, automated pipetting and data collection were all controlled by the SoftMax Pro software, version 7.1.2.
# To analyse the agonist and antagonist Ca^2+ mobilization Fluo-6 RFU’s kinetic data, the RFU’s readings acquired throughout the 60-s acquisition period for each individual well were divided by the average RFU values acquired during the first 18-s baseline acquisition period from the same well to calculate a fold over baseline (FOB) ratio.
# human TRPV1 = molecular target: T2, human TRPV1 (Homo sapiens, UniProt Q8NER1); test: FlexStation Ca2+ flux assay in HEK293T cells transfected with human TRPV1; format: cell-based
# T2 construct: expressed in transfected cells; host or cells: HEK293T
# T2 sequence (Q8NER1 whole entry): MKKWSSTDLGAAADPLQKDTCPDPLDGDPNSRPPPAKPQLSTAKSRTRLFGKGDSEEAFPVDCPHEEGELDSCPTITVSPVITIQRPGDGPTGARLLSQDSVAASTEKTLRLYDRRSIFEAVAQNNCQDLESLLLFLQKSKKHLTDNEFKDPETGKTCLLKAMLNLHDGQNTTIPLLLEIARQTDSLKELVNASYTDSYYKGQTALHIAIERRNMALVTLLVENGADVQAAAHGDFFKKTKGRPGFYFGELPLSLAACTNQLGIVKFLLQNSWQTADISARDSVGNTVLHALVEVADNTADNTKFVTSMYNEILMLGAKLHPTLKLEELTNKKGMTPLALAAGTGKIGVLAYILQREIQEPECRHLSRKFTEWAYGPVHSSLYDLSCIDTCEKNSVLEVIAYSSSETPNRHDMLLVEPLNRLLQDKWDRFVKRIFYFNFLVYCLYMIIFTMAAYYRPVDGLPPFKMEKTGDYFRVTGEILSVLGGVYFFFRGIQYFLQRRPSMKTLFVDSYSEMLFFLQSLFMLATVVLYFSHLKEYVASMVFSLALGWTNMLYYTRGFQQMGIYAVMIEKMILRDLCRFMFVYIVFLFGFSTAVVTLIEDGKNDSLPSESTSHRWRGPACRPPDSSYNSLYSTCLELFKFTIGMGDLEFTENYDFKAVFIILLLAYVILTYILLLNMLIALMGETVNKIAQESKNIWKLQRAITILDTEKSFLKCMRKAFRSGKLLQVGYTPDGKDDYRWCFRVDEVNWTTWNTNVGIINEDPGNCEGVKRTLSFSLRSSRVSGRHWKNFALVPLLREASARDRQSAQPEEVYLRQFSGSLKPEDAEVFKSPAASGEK
# Description: as §1, with “Transfected cells were seeded at 10,000 cells per well in a volume of 25 μl into black walled collagen coated 384-well microtiter plates and cultured in an incubator at 37°C, 5% CO2 and 95% humidity for 48 h prior to the initiation of calcium mobilization experiments performed on a FlexStation 3 (Molecular Devices, Sunnyvale, CA, USA) platform equipped with a 16-channel robotic pipettor head and FLIPR tetra pipette tips. At 46 h post transfection, cell monolayers were preloaded with 25 μl of the FLIPR Calcium 6 dye (Molecular Devices) for 2 h in an incubator at 37°C, 5% CO2 and 95% humidity according to the manufacturer’s instructions.” left out, “The FlexStation 3 instrument settings, automated pipetting and data collection were all controlled by the SoftMax Pro software, version 7.1.2.” left out
# oxaliplatin-treated mice = test: Oxaliplatin-induced cold hyperalgesia, cold-plantar test; format: in vivo, mouse
# Description: Male and female C57 BL/6J mice from Taconic Labs were randomized by sex and cage to oxaliplatin or vehicle groups. Mice were weighed and injected intraperitoneally (i.p.) with either oxaliplatin (3 mg·kg^−1), or vehicle (5% dextrose) once per day every day for five consecutive days, followed by five days off, and then by a second round of once per day for five more days. Therefore, mice received a total of 10 injections for a total of 30 mg·kg^−1. The average weight of the females was 18 g while of the males was 20 g. Consequently, the females received an average of 540 and the males 600 μg in total. Behavioural testing was started after the second round of oxaliplatin/vehicle administration. The cold-plantar test was used to assess changes in cold sensitivity. A 3 ml syringe barrel filled with powdered dry ice was used as the stimulus. The dry ice is placed on the glass (borosilicate glass; thickness, 1/8 in. (3.17 mm); temperature, 75°F (24°C), measured with a calibrated IR temperature probe) beneath the hindpaw and the latency to withdraw was determined ([Yilmaz et al., 2017]). The baseline withdrawal latency was determined from the mean of three stimulus applications (at an inter-stimulus interval of ~5 min), while that at each time interval after the administration of a test agent was again the mean of three stimulus applications bracketing the time point in question (i.e., 5 min before, at the time point, and 5 min after). Mice in the two groups defined by oxaliplatin treatment were subsequently randomized to the order of treatment (with the TRPM8 antagonist VBJ103, or vehicle control). VBJ103 and vehicle solutions were administered subcutaneously (s.c.) at doses of 3, 10 and 30 mg·kg^−1. Mice were tested every other day over 7 days so that each mouse received all four injections (vehicle and three doses of VBJ103). In a second cohort of male (n = 8) and female (n = 8) mice, all mice were treated with oxaliplatin as described above, and then randomized to the order of treatment with vehicle, VBJ103 (30 mg·kg^−1) alone, the TRPA1 antagonist, HC-030031 (200 mg·kg^−1) alone, or the combination of VBJ103 (30 mg·kg^−1) and HC-030031 (200 mg·kg^−1). A third cohort of male (n = 7) and female (n = 8) mice was also treated with oxaliplatin as described above. […] All test agents in both follow-up cohorts were again administered in a volume of 5 ml·kg^−1. Mice in both follow-up cohorts were again tested every other day over a period of 6 days. Finally, a fourth cohort of male (n = 4) and female (n = 4) mice was used to confirm that 200 mg·kg^−1 HC-030031 was sufficient to block TRPA1. For this experiment, mice were randomized to the order of treatment with vehicle or HC-030031 ([…]).
# AITC-treated mice = test: AITC-induced nociceptive behaviours; format: in vivo, mouse; conditions: HC-030031 200 mg·kg−1, 30 min before AITC 3 mg·kg−1 i.p.; quantified over 20 min
# Description: Male and female C57 BL/6J mice from Taconic Labs were randomized by sex and cage to oxaliplatin or vehicle groups. Mice were weighed and injected intraperitoneally (i.p.) with either oxaliplatin (3 mg·kg^−1), or vehicle (5% dextrose) once per day every day for five consecutive days, followed by five days off, and then by a second round of once per day for five more days. Therefore, mice received a total of 10 injections for a total of 30 mg·kg^−1. The average weight of the females was 18 g while of the males was 20 g. Consequently, the females received an average of 540 and the males 600 μg in total. Behavioural testing was started after the second round of oxaliplatin/vehicle administration. The cold-plantar test was used to assess changes in cold sensitivity. […] The dry ice is placed on the glass (borosilicate glass; thickness, 1/8 in. (3.17 mm); temperature, 75°F (24°C), measured with a calibrated IR temperature probe) beneath the hindpaw and the latency to withdraw was determined ([Yilmaz et al., 2017]). The baseline withdrawal latency was determined from the mean of three stimulus applications (at an inter-stimulus interval of ~5 min), while that at each time interval after the administration of a test agent was again the mean of three stimulus applications bracketing the time point in question (i.e., 5 min before, at the time point, and 5 min after). […]
# [2] = Core body temperature by radiotelemetry after i.c.v. administration; format: in vivo, mouse; conditions: 3 nmol in 1 μL i.c.v.; within 60 min; in five of eight mice
# Description: A second set of male C57Bl6J mice (Jackson Laboratories, n = 8) was implanted with telemetry as described above and a 26-gauge brain cannula (Plastics One) targeted at the lateral ventricle using coordinates relative to Bregma: 0.3 mm caudal, 1.0 mm lateral, 3.0 mm ventral. This second procedure was also performed under isoflurane anesthesia. The brain cannula was secured to the skull with two screws and dental cement. Animals were treated with buprenex (0.05 mg·kg^−1, s.c. every 8 h for 48 h) and enrofloxacin (2 mg·kg^−1, s.c.), singly housed and handled daily as described above. A single i.c.v. injection was performed every other day in a randomized order and included: (1) Galanin-like peptide (3 nmol/1 μL), (2) VBJ103 (306 nmol/1 μL) and (3) VBJ103 vehicle (1 μL). Galanin-like peptide produced a decrease in body temperature in five of eight mice. Therefore, body temperature data in response to VBJ103 and vehicle are presented in these five mice. These studies were carried out with a single dose of VBJ103 (306 nmol/1 μL or ~4 mg·kg^−1), which was the highest dose achievable due to constraints of the injection volume and the solubility of VBJ103.
# [3] = Partition coefficient (logD), shake flask method; format: physicochemical; conditions: n-octanol / pH 7.4 phosphate buffer
# Description: The partition coefficient (logD) at pH 7.4 of VBJ103 was determined using the shake flask method by Absorption Systems (Exton, PA, USA). The buffer was prepared by combining 50 ml of 0.2-M solution of KH2PO4 with 150 ml of dH2O and then adjusting to pH 7.4 with 10-N NaOH. In a single incubation, 15 μl of a 10-mM DMSO solution of each test article was added to test tubes which contained 0.75 ml of n-octanol and 0.75 ml of pH 7.4 phosphate buffer. Testosterone was also introduced to each tube as an internal control, also at a dosing concentration of 100 μM. These samples were gently mixed on a benchtop rotator for 1 h at room temperature. The tubes were then removed from the rotator, and the aqueous and organic phases were allowed to separate for 1 h. An aliquot of the organic layer was taken and diluted 200-fold into a mixture of 1:1 buffer: acetonitrile (ACN). An aliquot of the aqueous layer was taken and diluted 2-fold, 10-fold and 200-fold into a mixture of 1:1 buffer: ACN. All samples were assayed by LC–MS/MS on a Thermo BDS Hypersil C18 column (30 × 2.1 mm, 3 μm) using electrospray ionization, as previously reported ([Journigan et al., 2020]).
# [4] = ref Journigan et al, 2020; cited from earlier work
compound,measurement,setting,value
"COc1cc(CNC(=O)CCCC/C=C/C(C)C)ccc1O [capsaicin, reference compound]",time of peak drop in CBT,[1],≤ 60 min
same,drop in CBT versus s.c. VBJ103 or PBMC,[1]; positive control,significantly larger drop
"Cl.Cl.Cl.Cl.Cl.Cl.N.N.N.N.N.N.N.N.N.N.N.N.N.N.[O-2].[O-2].[Ru+3].[Ru+3].[Ru+4] [ruthenium red, reference compound]",IC50,human TRPA1,53 ± 7 nM
"Oc1cc2c(cc1O)CN(C(=S)NCCc1ccc(Cl)cc1)CCC2 [capsazepine, reference compound]",IC50,human TRPV1,566 ± 86 nM
"CC(C)c1ccc(NC(=O)Cn2cnc3c2c(=O)n(C)c(=O)n3C)cc1 [HC-030031, reference compound]",IC50,human TRPA1,2000 ± 830 nM
same,maximum inhibition at TRPA1,human TRPA1,54%
same,influence on oxaliplatin-induced cold hypersensitivity,"oxaliplatin-treated mice; 200 mg·kg−1 alone, second cohort, vehicle 0.5% Methocel",failed to detect an influence
same,AITC-induced nociceptive behaviours,AITC-treated mice,significantly attenuated
"galanin-like peptide: peptide given i.c.v. as positive control for a decrease in body temperature (APAHRGRGGWTLNSAGYLLGPVLHLPQMGDQDGKRETALEILDLWKAIDGLPYSHPPQPS; Galanin-like peptide; UniProt Q9UBC7 25-84, looked up) [reference compound]",decrease in CBT,[2],> 3 °C
"Fc1ccc(C(OCCN2CCN(CCCc3ccccc3)CC2)c2ccc(F)cc2)cc1 [GBR12909, reference compound]",influence on withdrawal latency to noxious cold stimuli,"oxaliplatin-treated mice; 20 mg·kg−1 alone, third cohort, vehicle 1:1 DMSO:water",no detectable influence
"C[C@]12CC[C@H]3[C@@H](CCC4=CC(=O)CC[C@@]43C)[C@@H]1CC[C@@H]2O [testosterone, reference compound]",logD at 1 h,[3],3.09
same,"Mouse Liver microsomes, T1/2",[4],3.7 min
